# Test results from patent US4764525A, “N-1H-tetrazol-5-ylbenzamides having use as antiallergy and antiinflammatory agents” (Warner-Lambert Company, priority 1987, dated 1988).
# Test system: human basophils
# Experiment: HHB assay: inhibition of histamine release from human basophils
# Format: cell-based
# Details: Anti-IgE stimulus, tested at 33 μM
# Text: The HHB assay quantitates active histamine release and its inhibition by drugs, from basophils of human blood. Thus, the assay provides evaluation of the compounds of formula I for treating the conditions or diseases as is the present invention. As described herein the assay includes modifications of the method described by R. P. Siroganian in "An Automated Continuous-Flow System for the Extraction and Fluorometric Analysis of Histamine," Anal. Biochem., 57, 383-394 (1974).
# Seventy ml of blood are drawn from allergic donors (chosen on the basis of adequate histamine induced by a challenge), using standard venipuncture methods, into 10 ml Vacutainers with 0.08 ml/tube 15% EDTA in water as anticoagulant. The blood samples are placed briefly on a rotary mixer. All glassware contacting the blood is siliconized. The blood is aliquoted into three plastic 50 ml centrifuge tubes and the volume is noted. Hespan (hydroxy ethyl starch), 0.5 ml per 1.0 ml of blood, is added. The tubes are inverted several times to mix and are left undisturbed at room temperature until a sharp separation is observed between the settled red cells and the leukocyte and platelet-rich plasma. This usually occurs within 35-45 minutes.
# The plasma fraction is pipetted off and placed into two clean plastic 50 ml centrifuge tubes. The tubes are centrifuged for 12 minutes at 4° C. in a a 100 ml volumetric flask and 0.5 ml DMSO is added. […] If the compound is in solution, distilled water is used to bring it up to 100 ml total volume. If the drug is not in solution, 0.2 ml 1N NaOH (or HCl) is added, and then distilled water is added to yield 100 ml total solution. Five ml of the stock solution is diluted (1:2) with 5 ml of two times concentrated HACM buffer to yield the stock working concentration of 150 μM. When added to the cells and stimulus, a final test concentration of 100 μM drug results (400 μl drug, 100 μcells and 100 μchallenge agent or vehicle). Further dilutions are made with HACM buffer for 33, 10, 3.3, 1.0 μM, etc.
# Short ragweed and house dust extracts (Greer Laboratories, Inc.) are supplied as aqueous extracts in stock concentrations of 40,000 and 10,000 protein nitrogen units per milliliter (PNU/ml), respectively. Aqueous solutions of anti-IgE antisera (rabbit-raised antibody) are purchased from Dako via Accurate Chemicals. The tripeptide f-met-leu-phe (fmlp) from Vega Biochemicals is used. The aqueous solutions of ragweed, house dust, and anti-IgE are diluted 1:2 with two times concentrated HACM and then further diluted with HACM to yield final stock concentrations of 6000 PNU/ml for ragweed and house dust, and a 1:50 dilution for the anti-IgE antisera. […]
row,Compound,inhibition at 33 µM [%]
1,"COc1ccc(C(=O)Nc2nnn[nH]2)c(OC(C)C)c1 [Example 1, 4-Methoxy-2-(1-methylethoxy)-N-1H-tetrazol-5-ylbenzamide]",41
2,"COc1ccc(C(=O)Nc2nnn[nH]2)c(OC(C)C)c1Br [Example 2, 3-Bromo-4-methoxy-2-(1-methylethoxy)-N-1H-tetrazol-5-ylbenzamide]",60
3,"COc1cc(OC(C)C)c(C(=O)Nc2nnn[nH]2)cc1Br [Example 3, 5-Bromo-4-methoxy-2-(1-methylethoxy)-N-1H-tetrazol-5-ylbenzamide]",28
4,"COc1ccc(C(=O)Nc2nnn[nH]2)c(OC(C)C)c1I [Example 4, 3-Iodo-4-methoxy-2-(1-methylethoxy)-N-1H-tetrazol-5-ylbenzamide]",73
